According to patent US7888042B2, “Methods for identifying insulin mimetics” (Ohio University, priority 2005, dated 2011):

Experiments:
Assay type in all cases: cell-based
3T3-L1 adipocytes [1] = experiment: Glucose uptake assay in 3T3-L1 adipocytes
Experimental: Chemical synthesis yields both the α- and β-anomers of PGG. (B) Glucose transport stimulatory activity (13, 14) of PGG was assessed by incubating adipocytes in 6-well plates with insulin or PGG for 15 min followed by the addition of [^3H]-2-deoxy-D-glucose for 10 min before quantifying uptake (13, n=3, mean±SD, Two way-ANOVA, * P<0.05; ** P<0.01). α-PGG (●); β-PGG (□); insulin (∘). (C) Glucose transport induced by insulin in the presence of α-PGG. One […] of insulin was added to adipocytes in the presence of increasing amounts of α-PGG. After induction, radioactive glucose was added, and the glucose taken up by the cells was counted.
Reagents, compound synthesis, and glucose uptake assay. Bovine insulin was purchased from Sigma. PGG, in an approximate 1:1 mixture of α- and β-PGG, was synthesized from glucose in the non-radioactive form as described (22). The identity of the compounds was confirmed by MS and NMR. The compounds were dissolved in double distilled water (ddH2O), filter sterilized, and stored as a 10 mM aqueous stock solution at −20° C. The stock solutions were diluted to final concentrations with sterile ddH2O. Glucose uptake assays in 3T3-L1 adipocytes induced by PGG were performed as described (13).

3T3-L1 adipocytes [2] = experiment: Glucose uptake assay with insulin signaling pathway inhibitors; conditions: inhibitor added along with α-PGG
Experimental: (§1) (A) Glucose transport was measured by determining [^3H]-2-deoxyglucose uptake stimulated by either insulin or α-PGG in 3T3-L1 cells in the presence or absence of HNMPA-(AM)3, an inhibitor of IR tyrosine kinase activity (24); wortmannin, an inhibitor of PI 3-kinase (25), or cytochalasin B, an inhibitor of GLUT4 (26), (n=4, mean±SD). (B) Cells were induced by 20 or 40 μM α-PGG or 100 nM insulin for 15 min. Cell lysates were separated by PAGE and analyzed for phosphorylation of IR (in CHO-IR cells) or Akt (in adipocytes) using antibodies specific to the target proteins. (C) Cells were treated with α-PGG and insulin in a fashion similar to (B) and assayed for their respective PI-3 kinase activity with a radioactive TLC method (27). (D) In similar experiments, intact cells were analyzed by confocal microscopy for translocation of GLUT4 using anti-GLUT4 antibodies.
Insulin signaling pathway study with inhibitors. To identify the signaling pathway and its potential protein target for PGG's glucose transport activity, three inhibitors to the insulin signaling pathway were selected. […] Inhibitors were individually added to the 3T3-L1 adipocytes along with either α-PGG or insulin at predetermined concentrations during glucose uptake assays, and the inhibition was measured by the glucose taken in by the cell samples treated with or without inhibitors.

GLUT4 = GLUT4 translocation, confocal microscopy; conditions: adipocytes, 37° C., 15 min
Experimental: as §1
Protein phosphorylation/activation and GLUT4 translocation. To investigate signal transduction induced by α-PGG, proteins from 3T3-L1 adipocytes or CHO-IR cells (23), which were treated with α-PGG or insulin for 15 min, were isolated, separated by PAGE, blotted on nylon membranes, and analyzed by Western blotting with antibodies against either IR or Akt. […]

O=C(OC[C@H]1OC(OC(=O)c2cc(O)c(O)c(O)c2)[C@H](OC(=O)c2cc(O)c(O)c(O)c2)[C@@H](OC(=O)c2cc(O)c(O)c(O)c2)[C@@H]1OC(=O)c1cc(O)c(O)c(O)c1)c1cc(O)c(O)c(O)c1 (stereo partly drawn) [PGG, 1,2,3,4,6-penta-O-galloyl-D-glucose]
mode of action at IR for glucose transport activity (3T3-L1 adipocytes [1]): partial agonist

C=C1[C@@H](C)[C@H]2[C@H](Cc3ccccc3)NC(=O)[C@]23OC(=O)/C=C/[C@H](O)CCC[C@@H](C)C/C=C/[C@H]3[C@@H]1O [cytochalasin B]
glucose transport activity induced by α-PGG in presence of inhibitor (3T3-L1 adipocytes [2]): completely abolished

O=C(OC[C@H]1O[C@@H](OC(=O)c2cc(O)c(O)c(O)c2)[C@H](OC(=O)c2cc(O)c(O)c(O)c2)[C@@H](OC(=O)c2cc(O)c(O)c(O)c2)[C@@H]1OC(=O)c1cc(O)c(O)c(O)c1)c1cc(O)c(O)c(O)c1 [β-PGG]
induction of glucose transport (3T3-L1 adipocytes [1]; 3T3-L1 adipocytes, [3H]-2-deoxy-D-glucose uptake, 15 min incubation): induced glucose transport in adipocytes in a dose-dependent manner

insulin: Bovine insulin purchased from Sigma
GLUT4 translocation (GLUT4): translocated to the plasma membrane
